The values that follow come from US20220242870A1, “HETEROCYCLE-FUSED PYRIMIDINE DERIVATIVE AND USE THEREOF” (VORONOI Inc., priority 2019, published 2022).

The subject of assay [1] is MV4-11 cells. Description: AML cell proliferation inhibitory activity (CellTiter-Glo). It is filed as cell-based. The settings on record: Homo sapiens, 72 hours. In a few lines: (§1)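 RS4;11 and MV4-11 cells in RPMI-1640 with 10% FBS, seeded 24 h before treatment, then exposed 72 h to 12 three-fold dilutions (0.3 nM–50 μM final). Viability by CellTiter-Glo luminescence relative to solvent control; GI50 from triplicate experiments.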
For orientation: ATP-based viability assays read luminescence as a measure of living cells.

The subject of assay [2] is RS4;11 cells. Described as above. It is filed as cell-based. The settings on record: Homo sapiens, 72 hours. In a few lines:
as §1

In assay [3] the target is T1, human FLT3-ITD enzyme (Homo sapiens, UniProt P36888).
T1 sequence (P36888 1-993): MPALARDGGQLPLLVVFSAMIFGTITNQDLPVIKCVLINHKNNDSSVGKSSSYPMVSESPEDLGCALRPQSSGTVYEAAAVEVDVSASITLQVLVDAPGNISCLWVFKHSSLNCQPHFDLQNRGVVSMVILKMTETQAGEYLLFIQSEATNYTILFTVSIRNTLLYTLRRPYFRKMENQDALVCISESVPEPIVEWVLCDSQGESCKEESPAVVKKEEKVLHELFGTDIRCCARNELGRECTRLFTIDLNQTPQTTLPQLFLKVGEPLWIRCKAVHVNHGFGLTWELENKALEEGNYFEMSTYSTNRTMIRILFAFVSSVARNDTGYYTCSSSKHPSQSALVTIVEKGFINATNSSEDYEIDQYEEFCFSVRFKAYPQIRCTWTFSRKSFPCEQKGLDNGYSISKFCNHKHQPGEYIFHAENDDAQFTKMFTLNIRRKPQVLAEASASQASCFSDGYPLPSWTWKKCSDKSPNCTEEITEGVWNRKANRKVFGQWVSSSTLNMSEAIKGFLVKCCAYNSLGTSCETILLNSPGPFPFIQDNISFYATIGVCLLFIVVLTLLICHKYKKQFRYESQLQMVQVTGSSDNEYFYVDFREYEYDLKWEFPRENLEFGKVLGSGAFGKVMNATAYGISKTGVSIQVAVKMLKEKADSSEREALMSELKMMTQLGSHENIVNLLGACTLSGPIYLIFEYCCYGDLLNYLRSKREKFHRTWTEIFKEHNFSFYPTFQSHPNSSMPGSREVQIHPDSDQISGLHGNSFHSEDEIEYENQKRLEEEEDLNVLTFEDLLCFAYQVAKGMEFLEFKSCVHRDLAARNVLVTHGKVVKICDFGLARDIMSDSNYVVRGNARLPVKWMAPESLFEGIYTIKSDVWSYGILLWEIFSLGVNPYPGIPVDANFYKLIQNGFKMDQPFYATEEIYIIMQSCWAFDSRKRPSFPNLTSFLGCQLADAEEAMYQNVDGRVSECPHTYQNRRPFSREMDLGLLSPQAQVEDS
Description: FLT3 enzyme inhibitory ability (ADP-Glo kinase assay). The settings on record: human FLT3-ITD enzyme 10 ng, ATP 10 μM, 25° C. 1 hour. It is filed as biochemical. In a few lines:
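Purified human FLT3-ITD (10 ng) with 10 μM ATP and specific substrate in 40 mM Tris-HCl pH 7.4, 20 mM MgCl2, 0.5 mg/mL BSA, 50 μM DTT, 1 h at 25 °C. ADP formation read by ADP-Glo luminescence; IC50 (nM) versus solvent-treated control.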

For assay [4], the system named is MCF-7 cells. Description: Breast cancer cell line proliferation inhibitory activity (CellTiter-Glo 2.0). The format is cell-based. The settings on record: Homo sapiens, MCF7, 120 hours. The essentials: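 MCF-7 cells exposed to a 12-point, 3-fold dilution series (final 0.00005–10 μM) for 120 h at 37 °C. Viability read by CellTiter-Glo 2.0 luminescence, expressed as percent of vehicle-treated cells. GI50 (nM) derived from the curves.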

The target in assay [5] is T2, human GST-HPK1 (1-346) (Homo sapiens, UniProt Q92918).
T2 construct: purified human GST-HPK1 (1-346, Signalchem) enzyme; purchased Signalchem
T2 sequence (Q92918 1-346): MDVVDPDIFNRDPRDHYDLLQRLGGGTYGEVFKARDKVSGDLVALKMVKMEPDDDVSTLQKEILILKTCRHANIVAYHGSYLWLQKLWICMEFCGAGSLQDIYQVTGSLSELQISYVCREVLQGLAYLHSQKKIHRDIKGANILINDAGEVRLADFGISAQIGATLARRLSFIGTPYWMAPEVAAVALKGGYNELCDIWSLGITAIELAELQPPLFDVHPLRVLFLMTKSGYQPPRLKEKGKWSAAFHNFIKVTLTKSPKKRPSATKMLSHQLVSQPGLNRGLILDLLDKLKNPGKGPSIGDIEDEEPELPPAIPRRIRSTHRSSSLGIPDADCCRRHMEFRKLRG
Description: HPK1 enzyme inhibitory ability (ADP-Glo kinase assay). It is filed as biochemical. The settings on record: human GST-HPK1 3 ng, ATP 3 uM, 25° C. 2 hours. The essentials: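 Human GST-HPK1(1-346), 3 ng, reacted with 3 uM ATP and specific substrate in 40 mM Tris-HCl pH 7.4, 20 mM MgCl2, 0.5 mg/mL BSA, 50 uM DTT for 2 h at 25° C. ADP-Glo luminescence read; IC50 (nM) relative to untreated solvent control.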
A general note: In ADP-Glo the light output rises with the ADP produced.

Broadly, the GI50 is the concentration that inhibits growth by half. The term IC50 denotes the midpoint of a concentration-inhibition curve. High values mean weaker potency, low ones greater potency.

Regarding `CN(C)CCN(C)c1ccc(Nc2nc(N3N=CCC3c3ccccc3)c3sccc3n2)cc1` (stereo not drawn) [Example 2, N-(2-(dimethylamino)ethyl)-N-methyl-N-(4-(5-phenyl-4,5-dihydro-1H-pyrazol-1-yl)thieno[3,2-d]pyrimidin-2-yl)benzene-1,4-diamine], the figures for the GI50 in assay [1] and in assay [2] were not below 250 nM and more than 500 nM, respectively. The compound further had an IC50 in assay [3] of 250 to 500 nM.
Regarding `C1=NN(c2nc(Nc3ccc(N4CCC(N5CCOCC5)CC4)cc3)nc3ccsc23)C(c2ccccc2)C1` (stereo not drawn) [Example 9, N-(4-(4-morpholinopiperidin-1-yl)phenyl)-4-(5-phenyl-4,5-dihydro-1H-pyrazol-1-yl)thieno[3,2-d]pyrimidin-2-amine], the GI50 in assay [1] and in assay [2] was more than 500 nM each time. In assay [3], this compound returned an IC50 of more than 500 nM.
For `CN1CCN(C(=O)Nc2ccc(Nc3nc(N4N=CCC4c4ccccc4)c4sccc4n3)cc2)CC1` (stereo not drawn) [Example 20, 4-methyl-N-(4-((4-(5-phenyl-4,5-dihydro-1H-pyrazol-1-yl)thieno[3,2-d]pyrimidin-2-yl)amino)phenyl)piperazine-1-carboxamide], the figures for the GI50 in assay [1] and in assay [2] were 250 to 500 nM and more than 500 nM, respectively. The compound also had an IC50 in assay [3] not below 250 nM.
For the compound `CN1CCN(c2ccc(Nc3nc(N4N=CCC4c4cc5ccccc5cn4)c4sccc4n3)cc2)CC1` (stereo not drawn) [Example 32, 4-(5-(isoquinolin-3-yl)-4,5-dihydro-1H-pyrazol-1-yl)-N-(4-(4-methylpiperazin-1-yl)phenyl)thieno[3,2-d]pyrimidin-2-amine], the GI50 in assay [1] and in assay [2] was more than 500 nM in each case. This compound also yielded an IC50 in assay [3] of more than 500 nM.
Consider `CN1CCN(c2ccc(Nc3nc(N4N=CCC4c4ccccn4)c4sccc4n3)cc2)CC1` (stereo not drawn) [Example 33, N-(4-(4-methylpiperazin-1-yl)phenyl)-4-(5-(pyridin-2-yl)-4,5-dihydro-1H-pyrazol-1-yl)thieno[3,2-d]pyrimidin-2-amine], for which the GI50 in assay [1] and in assay [2] was more than 500 nM throughout. In assay [3], this compound registered an IC50 of more than 500 nM.
With `CCN1CCN(c2ccc(Nc3nc(N4N=CCC4c4ccccc4)c4sccc4n3)cc2)CC1` (stereo not drawn) [Example 39, N-(4-(4-ethylpiperazin-1-yl)phenyl)-4-(5-phenyl-4,5-dihydro-1H-pyrazol-1-yl)thieno[3,2-d]pyrimidin-2-amine], the figures for the GI50 in assay [1] and in assay [2] were not below 250 nM and more than 500 nM, respectively. For the same compound, in assay [3], the IC50 was not below 250 nM.
For `Clc1c[nH]c2nc(Nc3ccc4c(c3)CCNC4)nc(N3OCC[C@H]3c3ccccc3)c12` [Example 117, (S)-N-(5-chloro-4-(3-phenylisoxazolidin-2-yl)-7H-pyrrolo[2,3-d]pyrimidin-2-yl)-1,2,3,4-tetrahydroisoquinolin-6-amine], the GI50 in assay [4] is not below 250 nM; in assay [1], more than 500 nM. Moreover, the IC50 in assay [3] and in assay [5] was not below 250 nM in each case.
On to `CN1CCN(C2CCN(c3ccc(Nc4nc(N5OCC[C@H]5c5ccccc5)c5c(C#N)c[nH]c5n4)cc3)CC2)CC1` [Example 119, (S)-2-((4-(4-(4-methylpiperazin-1-yl)piperidin-1-yl)phenyl)amino)-4-(3-phenylisoxazolidin-2-yl)-7H-pyrrolo[2,3-d]pyrimidine-5-carbonitrile], for which the GI50 in assay [4] was more than 500 nM; in assay [1], not below 250 nM. In addition, the IC50 in assay [3] and in assay [5] was not below 250 nM throughout.
For the compound `N#Cc1c[nH]c2nc(Nc3ccc4c(c3)CCNC4)nc(N3OCC[C@H]3c3ccccc3)c12` [Example 120, (S)-4-(3-phenylisoxazolidin-2-yl)-2-((1,2,3,4-tetrahydroisoquinolin-6-yl)amino)-7H-pyrrolo[2,3-d]pyrimidine-5-carbonitrile], the GI50 in assay [4] and in assay [1] was not below 250 nM throughout. For the same compound, the IC50 in assay [3] and in assay [5] was not below 250 nM in each case.
